Experimental data as given in ChEMBL document CHEMBL1201862, “PubChem BioAssay data set” (2004).
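A five-concentration, 48-hour dose response in 96-well plates underlies each endpoint, interpolated linearly between surrounding concentrations. The concentration for 50% growth inhibition is given as GI50.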 The source made the active and inactive calls. Rule as the data show it: active = GI50 up to about 1.1 µM and inactive = higher.

Experiments:
Assay in all cases: NCI anticancer screen, dose series, 48 h
SK-MEL-5 = test system: SK-MEL-5
Malme-3M = test system: Malme-3M
SK-MEL-2 = test system: SK-MEL-2
NCI/ADR-RES = test system: NCI/ADR-RES
SW-620 = test system: SW-620
RXF 393 = test system: RXF 393
HT-29 = test system: HT-29
COLO 205 = test system: COLO 205
Hs-578T = test system: Hs-578T
SK-MEL-28 = test system: SK-MEL-28
BT-549 = test system: BT-549
KM12 = test system: KM12
HOP-92 = test system: HOP-92
UACC-257 = test system: UACC-257
U-251 = test system: U-251
MCF7 = test system: MCF7
ACHN = test system: ACHN
DU-145 = test system: DU-145
NCI-H460 = test system: NCI-H460
SK-OV-3 = test system: SK-OV-3
A498 = test system: A498
T47D = test system: T47D
CCRF-CEM = test system: CCRF-CEM
SR = test system: SR
MDA-MB-231 = test system: MDA-MB-231
786-0 = test system: 786-0
OVCAR-8 = test system: OVCAR-8
HOP-62 = test system: HOP-62
IGROV-1 = test system: IGROV-1
PC-3 = test system: PC-3
HCC 2998 = test system: HCC 2998
MOLT-4 = test system: MOLT-4
NCI-H23 = test system: NCI-H23
UACC-62 = test system: UACC-62
SF-268 = test system: SF-268
TK-10 = test system: TK-10
K562 = test system: K562
SF-295 = test system: SF-295
A549 = test system: A549
LOX IMVI = test system: LOX IMVI
M14 = test system: M14
OVCAR-4 = test system: OVCAR-4
NCI-H522 = test system: NCI-H522
CAKI-1 = test system: CAKI-1
EKVX = test system: EKVX
NCI-H226 = test system: NCI-H226
MDA-MB-435 = test system: MDA-MB-435
OVCAR-3 = test system: OVCAR-3
HCT-116 = test system: HCT-116
SNB-19 = test system: SNB-19
SN12C = test system: SN12C
OVCAR-5 = test system: OVCAR-5
MDA-N = test system: MDA-N
RPMI-8226 = test system: RPMI-8226
SNB-75 = test system: SNB-75
SF-539 = test system: SF-539
HCT-15 = test system: HCT-15

CCCCC1(N=[N+]=[N-])C(=O)c2cccc3c2N(CCC3)C1=O (centres undefined)
GI50 (SK-MEL-5): > 100 µM (inactive)
GI50 (Malme-3M): > 100 µM (inactive)
GI50 (SK-MEL-2): > 100 µM (inactive)
GI50 (NCI/ADR-RES): 31 µM (inactive)
GI50 (SW-620): > 100 µM (inactive)
GI50 (RXF 393): > 100 µM (inactive)
GI50 (HT-29): > 100 µM (inactive)
GI50 (COLO 205): > 100 µM (inactive)
GI50 (Hs-578T): > 100 µM (inactive)
GI50 (SK-MEL-28): > 100 µM (inactive)
GI50 (BT-549): > 100 µM (inactive)
GI50 (KM12): > 100 µM (inactive)
GI50 (HOP-92): > 100 µM (inactive)
GI50 (UACC-257): > 100 µM (inactive)
GI50 (U-251): > 100 µM (inactive)
GI50 (MCF7): > 100 µM (inactive)
GI50 (ACHN): > 100 µM (inactive)
GI50 (DU-145): > 100 µM (inactive)
GI50 (NCI-H460): > 100 µM (inactive)
GI50 (SK-OV-3): > 100 µM (inactive)
GI50 (A498): > 100 µM (inactive)
GI50 (T47D): > 100 µM (inactive)
GI50 (CCRF-CEM): 91.6 µM (inactive)
GI50 (SR): > 100 µM (inactive)
GI50 (MDA-MB-231): > 100 µM (inactive)
GI50 (786-0): > 100 µM (inactive)
GI50 (OVCAR-8): > 100 µM (inactive)
GI50 (HOP-62): > 100 µM (inactive)
GI50 (IGROV-1): > 100 µM (inactive)
GI50 (PC-3): > 100 µM (inactive)
GI50 (HCC 2998): > 100 µM (inactive)
GI50 (MOLT-4): > 100 µM (inactive)
GI50 (NCI-H23): > 100 µM (inactive)
GI50 (UACC-62): 69.2 µM (inactive)
GI50 (SF-268): > 100 µM (inactive)
GI50 (TK-10): > 100 µM (inactive)
GI50 (K562): > 100 µM (inactive)
GI50 (SF-295): > 100 µM (inactive)
GI50 (A549): > 100 µM (inactive)
GI50 (LOX IMVI): > 100 µM (inactive)
GI50 (M14): > 100 µM (inactive)
GI50 (OVCAR-4): > 100 µM (inactive)
GI50 (NCI-H522): > 100 µM (inactive)
GI50 (CAKI-1): > 100 µM (inactive)
GI50 (EKVX): > 100 µM (inactive)
GI50 (NCI-H226): > 100 µM (inactive)
GI50 (MDA-MB-435): > 100 µM (inactive)
GI50 (OVCAR-3): 44.6 µM (inactive)
GI50 (HCT-116): > 100 µM (inactive)
GI50 (SNB-19): > 100 µM (inactive)
GI50 (SN12C): > 100 µM (inactive)
GI50 (OVCAR-5): > 100 µM (inactive)
GI50 (MDA-N): > 100 µM (inactive)
GI50 (RPMI-8226): > 100 µM (inactive)
GI50 (SNB-75): > 100 µM (inactive)
GI50 (SF-539): > 100 µM (inactive)
GI50 (HCT-15): > 100 µM

O=c1c2ccc(Cl)cc2oc2c(CSc3ccccc3)cccc12
GI50 (SK-MEL-5): > 46.6 µM (inactive)
GI50 (Malme-3M): 14.2 µM (inactive)
GI50 (SK-MEL-2): > 49.1 µM (inactive)
GI50 (NCI/ADR-RES): > 50.2 µM (inactive)
GI50 (SW-620): 21.5 µM (inactive)
GI50 (RXF 393): > 100 µM (inactive)
GI50 (HT-29): 95.9 µM (inactive)
GI50 (COLO 205): > 70 µM (inactive)
GI50 (Hs-578T): > 100 µM (inactive)
GI50 (SK-MEL-28): > 53.1 µM (inactive)
GI50 (BT-549): > 43 µM (inactive)
GI50 (KM12): 21.6 µM (inactive)
GI50 (HOP-92): > 39.4 µM (inactive)
GI50 (UACC-257): > 57.9 µM (inactive)
GI50 (U-251): 39.9 µM (inactive)
GI50 (MCF7): 29.1 µM (inactive)
GI50 (ACHN): > 39.2 µM (inactive)
GI50 (DU-145): 70.5 µM (inactive)
GI50 (NCI-H460): 23.8 µM (inactive)
GI50 (SK-OV-3): > 55 µM (inactive)
GI50 (A498): 25.7 µM (inactive)
GI50 (T47D): 61.7 µM (inactive)
GI50 (CCRF-CEM): 10.1 µM (inactive)
GI50 (SR): 9.64 µM (inactive)
GI50 (MDA-MB-231): > 63 µM (inactive)
GI50 (786-0): > 61.5 µM (inactive)
GI50 (OVCAR-8): 62.7 µM (inactive)
GI50 (HOP-62): > 55 µM (inactive)
GI50 (IGROV-1): > 24 µM (inactive)
GI50 (PC-3): > 39.5 µM (inactive)
GI50 (HCC 2998): > 54.1 µM (inactive)
GI50 (MOLT-4): 15.8 µM (inactive)
GI50 (NCI-H23): 28.4 µM (inactive)
GI50 (UACC-62): > 41.4 µM (inactive)
GI50 (SF-268): > 100 µM (inactive)
GI50 (TK-10): > 55.3 µM (inactive)
GI50 (K562): 15.3 µM (inactive)
GI50 (SF-295): > 43.9 µM (inactive)
GI50 (A549): > 32.4 µM (inactive)
GI50 (LOX IMVI): 9.57 µM (inactive)
GI50 (M14): > 42.5 µM (inactive)
GI50 (OVCAR-4): > 59.4 µM (inactive)
GI50 (NCI-H522): > 32.5 µM (inactive)
GI50 (CAKI-1): > 38.5 µM (inactive)
GI50 (EKVX): > 50.4 µM (inactive)
GI50 (NCI-H226): 46.3 µM (inactive)
GI50 (MDA-MB-435): > 21.9 µM (inactive)
GI50 (OVCAR-3): > 40.8 µM (inactive)
GI50 (HCT-116): 28.2 µM (inactive)
GI50 (SNB-19): > 45.5 µM (inactive)
GI50 (SN12C): 43.6 µM (inactive)
GI50 (OVCAR-5): > 62.8 µM (inactive)
GI50 (MDA-N): 31.7 µM (inactive)
GI50 (RPMI-8226): 13.2 µM (inactive)
GI50 (SNB-75): > 33.2 µM (inactive)
GI50 (SF-539): 24.5 µM (inactive)
GI50 (HCT-15): 28.4 µM
